Thermodynamic stability data for 1 compound are collected here from US7045661B2, “Crystalline forms of venlafaxine hydrochloride” (Ciba Specialty Chemicals Corporation, priority 2000, dated 2006).

A short description of this data set: Relative thermodynamic stability of crystalline forms. The conditions noted are these: compared with the previous known Form C. It is filed as physicochemical.

With `COc1ccc(C(CN(C)C)C2(O)CCCCC2)cc1.Cl` (stereo not shown) [Form B, 1-[(2-dimethylamino)-1-(4-methoxyphenyl)ethyl]cyclohexanol hydrochloride], the thermodynamic stability result is “thermodynamically more stable than the previous known Form C”.
